From patent US11229635B2, “Method of treating fibrosis” (BCN Biosciences L.L.C., priority 2016, dated 2022)

How the values were obtained:
[1] = tested on: radiation-induced pneumonitis and lung fibrosis; assay: Thoracic lung irradiation: survival, lung histology, fibrosis; type: in vivo, mouse
Method: Our goal is to develop a drug to protect lung from ionizing radiation that is administered subcutaneously and has a favorable risk/benefit profile when administered 24 hours or later after radiation exposure. The drug, BCN 512, originally discovered in the UCLA CMCR, is a novel drug that emerged from high-throughput screening of small molecule libraries, and is now under investigation as a radiation injury mitigator. In our efforts to develop the drug as a lung MCM to treat the Delayed Effects of Acute Radiation Exposure (DEARE), we use the C57BL/6 and C3H mouse models. These models appear to recapitulate human lung fibrosis and pneumonitis, respectively, based upon the distinct sensitivity of the two strains (1, 2).
Radiation fibrosis is a progressive, dose-related, late complication of radiation exposure, with animals and humans surviving for some time with non-lethal damage. […] 512 works by altering the inflammatory infiltrate into the lung.
A: Lung histology of C57BL/6 mice receiving local thoracic radiation (radiation of the lung area) presenting a focal area of increased cellularity and edema on the upper left quadrant. Adjacent to this is increased cellularity (the lacey patterning). The lower right quadrant, emphysema is present with large clear areas indicating where alveoli have collapsed to present large open areas. B. Histopathology of C57BL/6 mouse lung under identical radiation treatment as A, but also treated with 5 mg/kg BCN512 once per day every 24 hours for 5 doses.
In both lobes, significant collapse of alveoli can be seen along with hyper cellularity (dark areas) and pronounced emphysema (large open areas) presenting fibrosis. C, D are separate lobes from the same animal treated identically as above but receiving BCN512 at 5 mg/kg daily for 5 days after 14.5Gy local thoracic radiation.

[2] = tested on: Lewis lung (LLC) tumors; assay: Lewis lung (LLC) artificial metastasis model, lung tumor colonies; type: in vivo, C57Bl/6 and C3H mice
Method: One of the major concerns of the Food and Drug Administration for the application of radiation mitigators in RT is that if an agent can protect normal tissue from radiation damage, it may also protect tumor tissues. […] The syngeneic model of artificial metastasis used Lewis lung (LLC) tumors, and since LLC also grow in C3H mice, this could be employed as an allogeneic model. C57B1/6 and C3H mice were injected i.v. with 5×10^4 tumor cells. Subcutaneous drug injections were started on day +3 when the tumors were established in the lung in order to bias the experiment in favor of tumor growth promotion. The dose regimen was arbitrarily assigned to a dose of 20 mg/kg for 5 days. LTI was started on day 4, with 4 Gy doses administered daily for 3 days. This is higher than conventional 2 Gy to compensate for the more rapid growth of murine tumors, but is still well within the range used clinically in hypofractionated therapy.

[3] = tested on: immature myeloid cells; assay: Immature myeloid cells after WBI and WTLI; type: in vivo
Source text: 2. […] They co-express CD11b, Ly6G, and Ly6C, and are required for mitigation by BCN-512, at least after WBI.

SMILES: O=[N+]([O-])c1ccc(S(=O)(=O)N2CCN(c3ccccc3)CC2)cc1 [BCN512, 1-[(4-nitrobenezene)sulfonyl]-4-phenyl piperazine]
- lung fibrosis histology ([1]; 14.5Gy local thoracic radiation, 5 mg/kg daily for 5 days, Day 120): Absent are the large lesions and pronounced fibrosis
- overall survival from pneumonitis and lung fibrosis ([1]; 18 Gy whole thoracic lung irradiation, 5 mg/Kg sc in Cremophor days 1-5, at 90 days and 160): improved overall survival
- lung histopathology ([1]; C57BL/6 mice, 14.5Gy local thoracic radiation, 5 mg/kg once per day for 5 doses): Lung tissue is normal with no evident emphysema or edema or hyper cellularity or immune infiltrate
- development of radiation fibrosis (late disease) ([1]; after 14 Gy, acute delivery (FIG. 18)): mitigates against the development of this late disease
- inflammatory macrophage content and phenotypic markers in the lung ([1]; after LTI, day 150): decrease in inflammatory macrophage content and phenotypic markers
- mature macrophage cell content in lung ([1]; day 160 after LTI): greatly decreased
- lung tumor colony size ([2]; both strains, vs control): smaller in size than control
- decrease of the number of lung tumor colonies ([2]; day 14, 20 mg/kg sc for 5 days, both C3H and C57 mouse strains, P<0.05): 20%
- number of immature myeloid cells (CD11b, Ly6G, Ly6C) [3]: greatly increases
